This note sets out measurements from publication PMC7026418, “The kinase polypharmacology landscape of clinical PARP inhibitors” (Scientific Reports, 2020).

What all share (test): biochemical
Design in all cases: DiscoveRx KINOMEscan active site-directed competition binding; percent of control kinase bound to immobilised ligand

In assay [1] the target is T1, ASK2 (Homo sapiens, UniProt O95382).
T1 construct: gene MAP3K6
T1 sequence (O95382 1-1288): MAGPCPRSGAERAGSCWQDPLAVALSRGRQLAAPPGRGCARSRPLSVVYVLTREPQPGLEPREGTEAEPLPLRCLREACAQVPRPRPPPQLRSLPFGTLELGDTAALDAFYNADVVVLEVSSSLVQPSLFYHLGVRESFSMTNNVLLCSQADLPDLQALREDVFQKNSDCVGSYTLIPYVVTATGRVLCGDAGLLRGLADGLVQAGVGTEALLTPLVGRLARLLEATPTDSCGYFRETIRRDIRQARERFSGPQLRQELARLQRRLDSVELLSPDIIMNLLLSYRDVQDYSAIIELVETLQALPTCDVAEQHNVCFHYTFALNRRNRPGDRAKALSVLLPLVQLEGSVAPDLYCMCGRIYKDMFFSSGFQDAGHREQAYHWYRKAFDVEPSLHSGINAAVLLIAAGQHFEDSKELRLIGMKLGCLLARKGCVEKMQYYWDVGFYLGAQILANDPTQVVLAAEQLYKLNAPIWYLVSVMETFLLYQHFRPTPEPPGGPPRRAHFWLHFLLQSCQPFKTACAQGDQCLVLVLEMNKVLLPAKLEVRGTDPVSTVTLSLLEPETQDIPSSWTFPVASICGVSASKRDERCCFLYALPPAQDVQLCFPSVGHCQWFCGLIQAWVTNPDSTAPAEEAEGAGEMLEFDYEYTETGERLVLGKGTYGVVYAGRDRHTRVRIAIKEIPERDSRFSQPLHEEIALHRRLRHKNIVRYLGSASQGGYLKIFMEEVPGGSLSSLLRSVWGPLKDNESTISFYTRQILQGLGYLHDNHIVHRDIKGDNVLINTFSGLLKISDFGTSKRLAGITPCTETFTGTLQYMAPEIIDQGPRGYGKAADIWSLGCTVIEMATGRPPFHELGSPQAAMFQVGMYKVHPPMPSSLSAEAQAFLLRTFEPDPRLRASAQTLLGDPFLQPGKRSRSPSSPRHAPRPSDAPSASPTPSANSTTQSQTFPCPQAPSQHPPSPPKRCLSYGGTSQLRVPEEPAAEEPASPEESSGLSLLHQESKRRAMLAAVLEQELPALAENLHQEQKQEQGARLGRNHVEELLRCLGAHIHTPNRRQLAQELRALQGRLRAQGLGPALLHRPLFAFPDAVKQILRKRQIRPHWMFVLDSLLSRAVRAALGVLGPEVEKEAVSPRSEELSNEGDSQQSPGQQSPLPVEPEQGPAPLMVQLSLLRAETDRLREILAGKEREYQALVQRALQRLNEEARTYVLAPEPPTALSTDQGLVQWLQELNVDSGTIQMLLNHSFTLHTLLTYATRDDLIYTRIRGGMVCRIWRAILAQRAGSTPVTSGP

For assay [2], the target named is T2, MARK4 (Homo sapiens, UniProt Q96L34).
T2 sequence (Q96L34 1-752): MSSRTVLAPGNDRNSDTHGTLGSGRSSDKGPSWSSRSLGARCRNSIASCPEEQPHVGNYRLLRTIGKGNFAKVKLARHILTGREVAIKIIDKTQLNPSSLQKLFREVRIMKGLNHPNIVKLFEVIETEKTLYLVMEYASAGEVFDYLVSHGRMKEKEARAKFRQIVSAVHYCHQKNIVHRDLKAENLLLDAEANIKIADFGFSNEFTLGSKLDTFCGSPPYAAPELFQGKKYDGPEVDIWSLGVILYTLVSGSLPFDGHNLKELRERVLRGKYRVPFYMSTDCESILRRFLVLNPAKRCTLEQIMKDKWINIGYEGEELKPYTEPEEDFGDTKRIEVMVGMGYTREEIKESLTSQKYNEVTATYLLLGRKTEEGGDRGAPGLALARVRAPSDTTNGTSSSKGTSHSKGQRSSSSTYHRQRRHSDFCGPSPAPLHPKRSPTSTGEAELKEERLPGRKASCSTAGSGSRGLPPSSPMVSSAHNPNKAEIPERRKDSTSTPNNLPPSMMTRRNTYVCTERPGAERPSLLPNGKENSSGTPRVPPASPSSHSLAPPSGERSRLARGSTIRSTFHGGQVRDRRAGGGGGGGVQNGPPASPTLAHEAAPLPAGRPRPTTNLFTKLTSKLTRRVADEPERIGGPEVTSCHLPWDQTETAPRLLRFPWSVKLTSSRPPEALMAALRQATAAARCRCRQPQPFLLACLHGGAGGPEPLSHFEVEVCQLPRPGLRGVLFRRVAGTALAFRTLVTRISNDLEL

Assay [3] addresses T3, MYLK4 (Homo sapiens, UniProt Q86YV6).
T3 sequence (Q86YV6 1-388): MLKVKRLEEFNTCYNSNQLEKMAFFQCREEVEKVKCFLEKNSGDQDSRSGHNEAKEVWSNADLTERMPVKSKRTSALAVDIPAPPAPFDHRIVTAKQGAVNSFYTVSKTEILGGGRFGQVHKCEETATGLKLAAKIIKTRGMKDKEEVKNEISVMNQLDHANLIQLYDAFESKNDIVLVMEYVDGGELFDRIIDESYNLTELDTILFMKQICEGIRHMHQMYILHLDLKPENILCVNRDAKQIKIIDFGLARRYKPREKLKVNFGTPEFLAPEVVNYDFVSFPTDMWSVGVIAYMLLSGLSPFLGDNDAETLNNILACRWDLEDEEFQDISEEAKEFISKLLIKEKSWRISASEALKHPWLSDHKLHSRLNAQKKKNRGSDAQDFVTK

The mark [4] stands for this setting: read-out: Niraparib (MK-4827) / %Ctrl @ 10000nM.
The mark [5] stands for this setting: read-out: Talazoparib (BMN 673) / %Ctrl @ 10000nM.
Setting [6] is: read-out: Rucaparib / %Ctrl @ 10000nM, binding competition, % of control.
Where [7] appears, read: read-out: Olaparib / %Ctrl @ 10000nM.

Like-named read-outs stand apart in the source and are kept apart here.

Consider `NC(=O)c1cccc2cn(-c3ccc([C@@H]4CCCNC4)cc3)nc12` [Niraparib], for which the percent of control binding at 10 µM came out at 98% in assay [1] (setting [4]), 98% in assay [2] (setting [4]) and 20% in assay [3] (setting [4]).

Turning to `Cn1ncnc1[C@H]1c2n[nH]c(=O)c3cc(F)cc(c23)N[C@@H]1c1ccc(F)cc1` [Talazoparib], the percent of control binding at 10 µM in assay [1] (setting [5]) worked out at 85%; in assay [2] (setting [5]), 100%; in assay [3] (setting [5]), 90%.

Take `CNCc1ccc(-c2[nH]c3cc(F)cc4c3c2CCNC4=O)cc1` [Rucaparib]: the percent of control binding at 10 µM in assay [1] (setting [6]) is 77%; in assay [2] (setting [6]) it was 86%; in assay [3] (setting [6]), 1.3%.

As to `O=C(c1cc(Cc2n[nH]c(=O)c3ccccc23)ccc1F)N1CCN(C(=O)C2CC2)CC1` [Olaparib], the percent of control binding at 10 µM came out at 80% in assay [1] (setting [7]), 88% in assay [2] (setting [7]) and 92% in assay [3] (setting [7]).
